This assay concerns Mannhemia hemolytica KB345. In words: Paper disc assay, M. hemolytica KB345 (Tilmicosin-sensitivity strain). It counts as cell-based. Conditions: 24 h, Table 2; for zone of inhibition at 1 mg/disc: 1 mg/6 mm disk; for zone of inhibition at 3 mg/disc: 3 mg/6 mm disk; for zone of inhibition at 10 mg/disc: 10 mg/6 mm disk; for zone of inhibition at 30 mg/disc: 30 mg/6 mm disk; for zone of inhibition at 100 mg/disc: 100 mg/6 mm disk. On the procedure:
(1) Antibacterial Activities Against Mannheimia and Pasteurella were Determined by the Following Steps:
1) M. hemolytica KB345 (Tilmicosin-sensitivity strain) and M. hemolytica KB346 (Tilmicosin-low sensitivity strain) were provided. KB 345 strain stored at −80° C. was seeded to BHIB agar medium (10 mL) by using Microbank beads (Pro-Lab) and platinum nail. After statically incubating the KB 345 strain for 24 hours at 37° C., it was seeded to maintaining slant BHIB agar medium (7 mL) by using platinum loop, further statically incubated for 24 hours at 37° C. to obtain slant. One platinum loop of KB 345 strain stored at the slant was inoculated into a large test tube charged with BHIB liquid medium (10 mL) and then incubated for 24 hours at 37° C. with shaking.
2) A paper disc (ADVANTEC, Φ:6 mm) was impregnated with a solution of test compound and dried under reduced pressure.
3) To a melted BHIB agar medium was inoculated 1% of the broth obtained from step 1) above to prepare a test plate. After the medium set, the paper disc prepared in step 2) above was put on the plate and it was incubated at 37° C.
4) After one day, the inhibition zone diameter and clarity (A to E) were determined.

What is called zone of inhibition is the size of the clear area around the sample on an inoculated plate. The compound `CCCNC[C@]1(O)[C@H](C)O[C@@H](O[C@H]2[C@H](C)[C@@H](O[C@@H]3O[C@H](C)C[C@H](N(C)C)[C@H]3O)[C@](C)(O)C[C@@H](C)CN[C@H](C)[C@@H](O)[C@](C)(O)[C@@H](CC)OC(=O)[C@@H]2C)C[C@@]1(C)OC` [Tulathromycin, reference compound] had a zone of inhibition at 1 mg/disc of 12.5 mm, a zone of inhibition at 3 mg/disc of 16 mm and a zone of inhibition at 10 mg/disc of 18 mm.
Take `CC[C@H]1OC(=O)C[C@@H](O)[C@H](C)[C@@H](O[C@@H]2O[C@H](C)[C@@H](O[C@H]3C[C@@](C)(O)[C@@H](O)[C@H](C)O3)[C@H](N(C)C)[C@H]2O)[C@@H](CC=O)C[C@@H](C)C(=O)/C=C/C(C)=C/[C@@H]1CO[C@@H]1O[C@H](C)[C@@H](O)[C@@H](OC)[C@H]1OC` [Tylosin]: the zone of inhibition at 30 mg/disc was found to be 10.5 mm and the zone of inhibition at 100 mg/disc is 11 mm.
`CC[C@H]1OC(=O)C[C@@H](O)[C@H](C)[C@@H](O[C@@H]2OC(C)[C@@H](O)C(N(C)C)C2O)[C@@H](CCn2cc(-c3cccnc3)nn2)C[C@@H](C)C(=O)/C=C/C(C)=C/[C@@H]1CO[C@@H]1OC(C)[C@@H](O)C(OC)C1OC` (stereo partly drawn) [YT16, 20-(4-(pyridine-3-yl)-1H-1,2,3-triazol-1-yl)-20-deoxodesmycosin] yielded a zone of inhibition at 3 mg/disc of 11.5 mm, a zone of inhibition at 10 mg/disc of 14.5 mm, a zone of inhibition at 30 mg/disc of 16.5 mm and a zone of inhibition at 100 mg/disc of 19 mm.
In turn, `CC[C@H]1OC(=O)C[C@@H](O)[C@H](C)[C@@H](O[C@@H]2OC(C)[C@@H](O)C(N(C)C)C2O)[C@@H](CCn2cc(-c3cccc(N)c3)nn2)C[C@@H](C)C(=O)/C=C/C(C)=C/[C@@H]1CO[C@@H]1OC(C)[C@@H](O)C(OC)C1OC` (stereo partly drawn) [YT17] registered a zone of inhibition at 3 mg/disc of 12 mm, a zone of inhibition at 10 mg/disc of 14 mm, a zone of inhibition at 30 mg/disc of 18 mm and a zone of inhibition at 100 mg/disc of 19.5 mm.
The corresponding values for `CC[C@H]1OC(=O)C[C@@H](O)[C@H](C)[C@@H](O[C@@H]2OC(C)[C@@H](O)C(N(C)C)C2O)[C@@H](CCn2cc(-c3ccc(N)cc3)nn2)C[C@@H](C)C(=O)/C=C/C(C)=C/[C@@H]1CO[C@@H]1OC(C)[C@@H](O)C(OC)C1OC` (stereo partly drawn) [YT18] are 11 mm, 14.5 mm, 17 mm and 19.5 mm.
For `CCCCc1cn(CC[C@H]2C[C@@H](C)C(=O)/C=C/C(C)=C/[C@H](CO[C@@H]3OC(C)[C@@H](O)C(OC)C3OC)[C@@H](CC)OC(=O)C[C@@H](O)[C@H](C)[C@H]2O[C@@H]2OC(C)[C@@H](O)C(N(C)C)C2O)nn1` (stereo partly drawn) [YT20, 20-(4-butyl-1H-1,2,3-triazol-1-yl)-20-deoxodesmycosin], the zone of inhibition at 1 mg/disc came out at 9 mm, the zone of inhibition at 3 mg/disc worked out at 11.5 mm, the zone of inhibition at 10 mg/disc turned out to be 16 mm and the zone of inhibition at 30 mg/disc stood at 17.5 mm. This compound also showed a zone of inhibition at 100 mg/disc of 20 mm.
The corresponding values for `CC[C@H]1OC(=O)C[C@@H](O)[C@H](C)[C@@H](O[C@@H]2OC(C)[C@@H](O)C(N(C)C)C2O)[C@@H](CCn2cc(-c3ccc(-c4ccccc4)cc3)nn2)C[C@@H](C)C(=O)/C=C/C(C)=C/[C@@H]1CO[C@@H]1OC(C)[C@@H](O)C(OC)C1OC` (stereo partly drawn) [YT21] are 11.5 mm, 13.5 mm, 15.5 mm, 18 mm and 19 mm.
For `CCOC(=O)c1cn(CC[C@H]2C[C@@H](C)C(=O)/C=C/C(C)=C/[C@H](CO[C@@H]3OC(C)[C@@H](O)C(OC)C3OC)[C@@H](CC)OC(=O)C[C@@H](O)[C@H](C)[C@H]2O[C@@H]2OC(C)[C@@H](O)C(N(C)C)C2O)nn1` (stereo partly drawn) [YT22, 20-(4-ethoxycarbonyl-1H-1,2,3-triazol-1-yl)-20-deoxodesmycosin], in that order: 7.5 mm, 11.5 mm, 14.5 mm, 18 mm and 21 mm.
With `CC[C@H]1OC(=O)C[C@@H](O)[C@H](C)[C@@H](O[C@@H]2OC(C)[C@@H](O)C(N(C)C)C2O)[C@@H](CCn2cc(-c3ccc(Oc4ccccc4)cc3)nn2)C[C@@H](C)C(=O)/C=C/C(C)=C/[C@@H]1CO[C@@H]1OC(C)[C@@H](O)C(OC)C1OC` (stereo partly drawn) [YT24, 20-(4-(4-phenoxyphenyl)-1H-1,2,3-triazol-1-yl)-20-deoxodesmycosin], the zone of inhibition at 1 mg/disc worked out at 8.5 mm, the zone of inhibition at 3 mg/disc was determined as 12 mm, the zone of inhibition at 10 mg/disc is 14.5 mm and the zone of inhibition at 30 mg/disc came out at 17 mm. This compound returned a zone of inhibition at 100 mg/disc of 18 mm.
For `CC[C@H]1OC(=O)C[C@@H](O)[C@H](C)[C@@H](O[C@@H]2OC(C)[C@@H](O)C(N(C)C)C2O)[C@@H](CCn2cc(-c3cc(C)c(C)cc3C)nn2)C[C@@H](C)C(=O)/C=C/C(C)=C/[C@@H]1CO[C@@H]1OC(C)[C@@H](O)C(OC)C1OC` (stereo partly drawn) [YT25, 20-(4-(2,4,5-trimethylphenyl)-1H-1,2,3-triazol-1-yl)-20-deoxodesmycosin], in that order: 8 mm, 12 mm, 14 mm, 17 mm and 18.5 mm.
Compound `CC[C@H]1OC(=O)C[C@@H](O)[C@H](C)[C@@H](O[C@@H]2OC(C)[C@@H](O)C(N(C)C)C2O)[C@@H](CCn2cc(-c3ccc(C(C)(C)C)cc3)nn2)C[C@@H](C)C(=O)/C=C/C(C)=C/[C@@H]1CO[C@@H]1OC(C)[C@@H](O)C(OC)C1OC` (stereo partly drawn) [YT26, 20-(4-(4-t-butylphenyl)-1H-1,2,3-triazol-1-yl)-20-deoxodesmycosin] came in with a zone of inhibition at 3 mg/disc of 9 mm, a zone of inhibition at 10 mg/disc of 11.5 mm, a zone of inhibition at 30 mg/disc of 14 mm and a zone of inhibition at 100 mg/disc of 16 mm.
The corresponding values for `CCCCCOc1ccc(-c2cn(CC[C@H]3C[C@@H](C)C(=O)/C=C/C(C)=C/[C@H](CO[C@@H]4OC(C)[C@@H](O)C(OC)C4OC)[C@@H](CC)OC(=O)C[C@@H](O)[C@H](C)[C@H]3O[C@@H]3OC(C)[C@@H](O)C(N(C)C)C3O)nn2)cc1` (stereo partly drawn) [YT27, 20-(4-(4-pentyloxyphenyl)-1H-1,2,3-triazol-1-yl)-20-deoxodesmycosin] are 9 mm, 11 mm, 13 mm and 16 mm.
For `CC[C@H]1OC(=O)C[C@@H](O)[C@H](C)[C@@H](O[C@@H]2OC(C)[C@@H](O)C(N(C)C)C2O)[C@@H](CCn2cc(Cn3nnc4ccccc43)nn2)C[C@@H](C)C(=O)/C=C/C(C)=C/[C@@H]1CO[C@@H]1OC(C)[C@@H](O)C(OC)C1OC` (stereo partly drawn) [YT28, 20-(4-(1-methyl-1H-benzotriazole)-1H-1,2,3-triazol-1-yl)-20-deoxodesmycosin], in that order: 11 mm, 13 mm, 16 mm and 19 mm.
Consider `CC[C@H]1OC(=O)C[C@@H](O)[C@H](C)[C@@H](O[C@@H]2OC(C)[C@@H](O)C(N(C)C)C2O)[C@@H](CCn2cc(CNC)nn2)C[C@@H](C)C(=O)/C=C/C(C)=C/[C@@H]1CO[C@@H]1OC(C)[C@@H](O)C(OC)C1OC` (stereo partly drawn) [YT30, 20-(4-(N-methyl-methylamine)-1H-1,2,3-triazol-1-yl)-20-deoxodesmycosin], for which the zone of inhibition at 100 mg/disc came out at 10 mm.
On to `CC[C@H]1OC(=O)C[C@@H](O)[C@H](C)[C@@H](O[C@@H]2OC(C)[C@@H](O)C(N(C)C)C2O)[C@@H](CCn2cc(C(C)(C)O)nn2)C[C@@H](C)C(=O)/C=C/C(C)=C/[C@@H]1CO[C@@H]1OC(C)[C@@H](O)C(OC)C1OC` (stereo partly drawn) [YT32, 20-(4-(1-methyl-1-hydroxylethyl)-1H-1,2,3-triazol-1-yl)-20-deoxodesmycosin], for which the zone of inhibition at 10 mg/disc turned out to be 9 mm, the zone of inhibition at 30 mg/disc came out at 14 mm and the zone of inhibition at 100 mg/disc is 16 mm.
On to `CC[C@H]1OC(=O)C[C@@H](O)[C@H](C)[C@@H](O[C@@H]2OC(C)[C@@H](O)C(N(C)C)C2O)[C@@H](CCn2cc(CC(C)C)nn2)C[C@@H](C)C(=O)/C=C/C(C)=C/[C@@H]1CO[C@@H]1OC(C)[C@@H](O)C(OC)C1OC` (stereo partly drawn) [YT33, 20-(4-(2-methyl-propyl)-1H-1,2,3-triazol-1-yl)-20-deoxodesmycosin], for which the zone of inhibition at 3 mg/disc stood at 13 mm, the zone of inhibition at 10 mg/disc is 16 mm, the zone of inhibition at 30 mg/disc worked out at 17 mm and the zone of inhibition at 100 mg/disc came out at 20 mm.
For `CCCCCCCCCc1cn(CC[C@H]2C[C@@H](C)C(=O)/C=C/C(C)=C/[C@H](CO[C@@H]3OC(C)[C@@H](O)C(OC)C3OC)[C@@H](CC)OC(=O)C[C@@H](O)[C@H](C)[C@H]2O[C@@H]2OC(C)[C@@H](O)C(N(C)C)C2O)nn1` (stereo partly drawn) [YT34, 20-(4-nonyl-1H-1,2,3-triazol-1-yl)-20-deoxodesmycosin], in that order: 11 mm, 13 mm, 14 mm and 15 mm.

The record behind these values is patent US9593140B2, “Antibacterial tylosin derivatives and methods for their preparation” (Bayer Intellectual Property GmbH, priority 2011, dated 2017).
